{
  "source": "patent US11560385B2",
  "about": "“Proteasome activity enhancing compounds” (Proteostasis Therapeutics, Inc., priority 2018, dated 2023)",
  "data": [
    {"target": "USP14 (Homo sapiens (Human), UniProt P54578)", "sequence (P54578 whole entry, looked up)": "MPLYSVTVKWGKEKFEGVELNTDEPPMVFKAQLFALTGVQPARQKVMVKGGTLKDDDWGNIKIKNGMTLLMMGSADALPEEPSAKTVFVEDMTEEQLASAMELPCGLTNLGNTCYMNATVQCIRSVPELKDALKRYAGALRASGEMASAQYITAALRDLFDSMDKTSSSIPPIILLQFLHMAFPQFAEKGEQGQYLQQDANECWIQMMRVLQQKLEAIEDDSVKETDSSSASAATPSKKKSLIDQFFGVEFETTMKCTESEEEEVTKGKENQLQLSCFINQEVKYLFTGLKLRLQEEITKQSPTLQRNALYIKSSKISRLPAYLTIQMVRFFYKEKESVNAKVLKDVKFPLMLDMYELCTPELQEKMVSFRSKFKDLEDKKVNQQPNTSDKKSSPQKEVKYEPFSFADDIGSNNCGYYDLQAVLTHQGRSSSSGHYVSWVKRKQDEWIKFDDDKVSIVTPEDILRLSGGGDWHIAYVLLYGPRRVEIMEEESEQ", "test": "Usp14 inhibition assay (Example 57B, B-series compounds)", "format": "biochemical", "conditions": "IC50 class; average value from a minimum of two experimental determinations", "from_the_text": "Example 57B: Usp14 Inhibition Assay\nThe IC50 values in the Table below represent the average value from a minimum of two experimental determinations.", "units": {"IC50": "nM"}, "values": [
      {"compound": "Cc1cc(C(=O)CN2C3CCCC2CCC3)c(C)n1-c1ccc(C#N)cc1", "note": "[Example 87B, 4-(3-(2-((1s,5s)-9-Azabicyclo[3.3.1]nonan-9-yl)acetyl)-2,5-dimethyl-1H-pyrrol-1-yl)benzonitrile]", "IC50": "50 to 500"},
      {"compound": "Cc1cc(C(=O)CN2C3CCC2[C@@H](CO)C3)c(C)n1-c1ccc(C#N)cc1", "note": "(mixture of isomers) [Example 130B, (±)-4-(3-(2-((2R)-2-(Hydroxymethyl)-7-azabicyclo[2.2.1]heptan-7-yl)acetyl)-2,5-dimethyl-1H-pyrrol-1-yl)benzonitrile]", "IC50": "50 to 500"},
      {"compound": "Cc1c(F)c(C(=O)CN2C3CC4CC2CC(C3)O4)c(C)n1-c1ccc(C#N)c(F)c1", "note": "(racemic) [Example 116B, (±)-4-(3-(2-((1r,3r)-2-Oxa-6-azaadamantan-6-yl)acetyl)-4-fluoro-2,5-dimethyl-1H-pyrrol-1-yl)-2-fluorobenzonitrile]", "IC50": "50 to 500"},
      {"compound": "Cc1cc(C(=O)CN2[C@@H]3CC[C@@H]2CC(O)(C(F)(F)F)C3)c(C)n1-c1ccc(C#N)cc1", "note": "(stereo partly drawn) [Example 75B, 4-(3-(2-((1R,3s,5S)-3-Hydroxy-3-(trifluoromethyl)-8-azabicyclo[3.2.1]octan-8-yl)acetyl)-2,5-dimethyl-1H-pyrrol-1-yl)benzonitrile]", "IC50": "50 to 500"},
      {"compound": "Cc1c(C(=O)CN2C3CCC2[C@@H](O)C3)cc(/C=C/CN2C(=O)c3ccccc3C2=O)n1-c1ccc(C#N)cc1", "note": "(mixture of isomers) [Example 153B, (±)-4-(5-0E)-3-(1,3-Dioxoisoindolin-2-yl)prop-1-en-1-yl)-3-(2-((1R,2R,4S)-2-hydroxy-7-azabicyclo[2.2.1]heptan-7-yl)acetyl)-2-methyl-1H-pyrrol-1-yl)benzonitrile]", "IC50": "< 50"},
      {"compound": "Cc1c(C(=O)CN2C3CCC2CC3)cc(CCCCS(C)(=O)=O)n1-c1ccc(Cl)cc1", "note": "[Example 18B, 2-(7-Azabicyclo[2.2.1]heptan-7-yl)-1-(1-(4-chlorophenyl)-2-methyl-5-(4-(methylsulfonyl)butyl)-1H-pyrrol-3-yl)ethan-1-one]", "IC50": "50 to 500"},
      {"compound": "Cc1cc(C(=O)CN2[C@@H]3C=C(C(F)(F)F)[C@H]2CC3)c(C)n1-c1ccc(C#N)cc1", "note": "(racemic) [Example 141B, (±)-4-(2,5-Dimethyl-3-(2-((1R,4S)-2-(trifluoromethyl)-7-azabicyclo[2.2.1]hept-2-en-7-yl)acetyl)-1H-pyrrol-1-yl)benzonitrile]", "IC50": "> 500"},
      {"compound": "Cc1cc(C(=O)CN2C3CCC2[C@@H](O)C3)c(C)n1-c1cc(F)c(C#N)c(F)c1", "note": "(mixture of isomers) [Example 94B, (±)-2,6-Difluoro-4-(3-(2-((2R)-2-hydroxy-7-azabicyclo[2.2.1]heptan-7-yl)acetyl)-2,5-dimethyl-1H-pyrrol-1-yl)benzonitrile]", "IC50": "50 to 500"},
      {"compound": "Cc1c(C(=O)CN2C3CCC2[C@@H](O)C3)cc(C2CCC2)n1-c1ccc(C#N)cc1", "note": "(mixture of isomers) [Example 108B, (±)-4-(5-Cyclobutyl-3-(2-((2R)-2-hydroxy-7-azabicyclo[2.2.1]heptan-7-yl)acetyl)-2-methyl-1H-pyrrol-1-yl)benzonitrile]", "IC50": "< 50"},
      {"compound": "Cc1c(F)c(C(=O)CN2C3CCC2CC3)c(C)n1-c1ccc(C#N)cc1", "note": "[Example 104B, 4-(3-(2-((1s,4s)-7-Azabicyclo[2.2.1]heptan-7-yl)acetyl)-4-fluoro-2,5-dimethyl-1H-pyrrol-1-yl)benzonitrile]", "IC50": "50 to 500"},
      {"compound": "Cc1c(C(=O)CN2C3CCC2[C@@H](O)C3)cc(CCCC2CC(C)(C)OC2=O)n1-c1ccc(C#N)cc1", "note": "(mixture of isomers) [Example 51B, (±)-4-(5-(3-(5,5-Dimethyl-2-oxotetrahydrofuran-3-yl)propyl)-3-(2-((1R,2R,4S)-2-hydroxy-7-azabicyclo[2.2.1]heptan-7-yl)acetyl)-2-methyl-1H-pyrrol-1-yl)benzonitrile]", "IC50": "< 50"},
      {"compound": "Cc1c(C(=O)CN2C3CCC2[C@@H](O)C3)c(Cl)c(/C=C/CC(C)(C)C#N)n1-c1ccc(C#N)cc1", "note": "(mixture of isomers) [Example 46B, (±)-4-(3-Chloro-2-((E)-4-cyano-4-methylpent-1-en-1-yl)-4-(2-((2R)-2-hydroxy-7-azabicyclo[2.2.1]heptan-7-yl)acetyl)-5-methyl-1H-pyrrol-1-yl)benzonitrile]", "IC50": "50 to 500"},
      {"compound": "Cc1c(C(=O)CN2C3CCC2CC3)cc(CCCCC#N)n1-c1ccc(Cl)cc1", "note": "[Example 31B, 5-(4-(2-(7-Azabicyclo[2.2.1]heptan-7-yl)acetyl)-1-(4-chlorophenyl)-5-methyl-1H-pyrrol-2-yl)pentanenitrile]", "IC50": "50 to 500"},
      {"compound": "Cc1c(C(=O)CN2C3CCC2[C@@H](O)C3)cc(CCC2COC2)n1-c1ccc(C#N)cc1", "note": "(mixture of isomers) [Example 43B, (±)-4-(3-(2-((2R)-2-Hydroxy-7-azabicyclo[2.2.1]heptan-7-yl)acetyl)-2-methyl-5-(2-(oxetan-3-yl)ethyl)-1H-pyrrol-1-yl)benzonitrile]", "IC50": "< 50"},
      {"compound": "Cc1c(F)c(C(=O)CN2[C@@H]3CC[C@H]2[C@H](C)C3)c(C)n1-c1ccc(C#N)cc1", "note": "(racemic) [Example 121B, (±)-4-(3-Fluoro-2,5-dimethyl-4-(2-((1S,2R,4R)-2-methyl-7-azabicyclo[2.2.1]heptan-7-yl)acetyl)-1H-pyrrol-1-yl)benzonitrile]", "IC50": "50 to 500"},
      {"compound": "Cc1cc(C(=O)CN2C3CCCC2CC3)c(C)n1-c1ccc(C#N)cc1", "note": "[Example 69B, 4-(3-(2-(8-Azabicyclo[3.2.1]octan-8-yl)acetyl)-2,5-dimethyl-1H-pyrrol-1-yl)benzonitrile]", "IC50": "50 to 500"},
      {"compound": "Cc1c(C(=O)CN2C3CCC2[C@@H](O)C3)cc(CC[Si](C)(C)C)n1-c1ccc(C#N)cc1", "note": "(mixture of isomers) [Example 50B, (±)-4-(3-(2-((2R)-2-Hydroxy-7-azabicyclo[2.2.1]heptan-7-yl)acetyl)-2-methyl-5-(2-(trimethylsilyl)ethyl)-1H-pyrrol-1-yl)benzonitrile]", "IC50": "50 to 500"},
      {"compound": "Cc1c(C(=O)CN2C3CCC2[C@@H](O)C3)cc(C(F)(F)F)n1-c1ccc(C#N)cc1", "note": "(mixture of isomers) [Example 109B, (±)-4-(3-(2-((2R)-2-Hydroxy-7-azabicyclo[2.2.1]heptan-7-yl)acetyl)-2-methyl-5-(trifluoromethyl)-1H-pyrrol-1-yl)benzonitrile]", "IC50": "50 to 500"},
      {"compound": "Cc1c(C(=O)CN2[C@@H]3CC[C@H]2[C@@H](O)C3)cc(CCCC2CCOCC2)n1-c1ccc(C#N)cc1", "note": "(racemic) [Example 2B, (±)-4-(3-(2-((1S,2S,4R)-2-Hydroxy-7-azabicyclo[2.2.1]heptan-7-yl)acetyl)-2-methyl-5-(3-(tetrahydro-2H-pyran-4-yl)propyl)-1H-pyrrol-1-yl)benzonitrile]", "IC50": "< 50"},
      {"compound": "Cc1c(C(=O)CN2[C@@H]3CC[C@H]2[C@@H](O)C3)cc(-c2csc(C(F)(F)F)n2)n1-c1ccc(C#N)cc1", "note": "(racemic) [Example 145B, (±)-4-(3-(2-((1R,2R,4S)-2-Hydroxy-7-azabicyclo[2.2.1]heptan-7-yl)acetyl)-2-methyl-5-(2-(trifluoromethyl)thiazol-4-yl)-1H-pyrrol-1-yl)benzonitrile]", "IC50": "> 500"},
      {"compound": "COC1C[C@H]2CC[C@H](C1)N2CC(=O)c1cc(C)n(-c2ccc(C#N)cc2)c1C", "note": "(stereo partly drawn) [Example 89B, 4-(3-(2-((1R,3s,5S)-3-Methoxy-8-azabicyclo[3.2.1]octan-8-yl)acetyl)-2,5-dimethyl-1H-pyrrol-1-yl)benzonitrile]", "IC50": "50 to 500"},
      {"compound": "CCC(C)c1cc(C(=O)CN2C3CCC2[C@@H](O)C3)c(C)n1-c1ccc(C#N)cc1", "note": "(mixture of isomers) [Example 114B, (±)-4-(5-(sec-Butyl)-3-(2-((1R,2R,4S)-2-hydroxy-7-azabicyclo[2.2.1]heptan-7-yl)acetyl)-2-methyl-1H-pyrrol-1-yl)benzonitrile]", "IC50": "50 to 500"},
      {"compound": "Cc1cc(C(=O)CN2C3CCC2[C@@H](CC(C)(C)O)C3)c(C)n1-c1ccc(C#N)cc1", "note": "(mixture of isomers) [Example 148B, (±)-4-(3-(2-((2S)-2-(2-Hydroxy-2-methylpropyl)-7-azabicyclo[2.2.1]heptan-7-yl)acetyl)-2,5-dimethyl-1H-pyrrol-1-yl)benzonitrile]", "IC50": "> 500"},
      {"compound": "Cc1c(CCCCS(C)(=O)=O)c(C(=O)CN2C3CCC2[C@@H](O)C3)c(C)n1-c1ccc(C#N)cc1", "note": "(mixture of isomers) [Example 19B, (±)-4-(3-(2-((2R)-2-Hydroxy-7-azabicyclo[2.2.1]heptan-7-yl)acetyl)-2,5-dimethyl-4-(4-(methylsulfonyl)butyl)-1H-pyrrol-1-yl)benzonitrile]", "IC50": "> 500"},
      {"compound": "Cc1c(C(=O)CN2C3CCC2CC3)c(C)n(-c2ccc(C#N)cc2)c1CCCCS(C)(=O)=O", "note": "[Example 1B, 4-(3-(2-(7-Azabicyclo[2.2.1]heptan-7-yl)acetyl)-2,4-dimethyl-5-(4-(methylsulfonyl)butyl)-1H-pyrrol-1-yl)benzonitrile]", "IC50": "> 500"},
      {"compound": "Cc1c(C(=O)CN2C3CCC2[C@@H](O)C3)cc(C#CCCC#N)n1-c1ccc(C#N)cc1", "note": "(mixture of isomers) [Example 10B, (±)-4-(5-(4-Cyanobut-1-yn-1-yl)-3-(2-((2R)-2-hydroxy-7-azabicyclo[2.2.1]heptan-7-yl)acetyl)-2-methyl-1H-pyrrol-1-yl)benzonitrile]", "IC50": "< 50"},
      {"compound": "Cc1cc(C(=O)CN2C3CCC2[C@@H](O)C3)c(C)n1-c1cc(F)c(C#N)cc1F", "note": "(mixture of isomers) [Example 107B, (±)-2,5-Difluoro-4-(3-(2-((2R)-2-hydroxy-7-azabicyclo[2.2.1]heptan-7-yl)acetyl)-2,5-dimethyl-1H-pyrrol-1-yl)benzonitrile]", "IC50": "50 to 500"},
      {"compound": "Cc1c(C(=O)CN2C3CCC2[C@@H](O)C3)c(Cl)c(Cl)n1-c1ccc(C#N)cc1", "note": "(mixture of isomers) [Example 97B, (±)-4-(2,3-Dichloro-4-(2-((2R)-2-hydroxy-7-azabicyclo[2.2.1]heptan-7-yl)acetyl)-5-methyl-1H-pyrrol-1-yl)benzonitrile]", "IC50": "50 to 500"},
      {"compound": "Cc1cc(C(=O)CN2[C@@H]3CC[C@H]2[C@H](C)C3)c(C)n1-c1ccc(C#N)cc1", "note": "(racemic) [Example 122B, (±)-4-(2,5-Dimethyl-3-(2-((1S,2R,4R)-2-methyl-7-azabicyclo[2.2.1]heptan-7-yl)acetyl)-1H-pyrrol-1-yl)benzonitrile]", "IC50": "50 to 500"},
      {"compound": "Cc1c(C(=O)CN2C3CCC2[C@@H](O)C3)c(Cl)c(CCCCC#N)n1-c1ccc(C#N)c(F)c1", "note": "(mixture of isomers) [Example 40B, (±)-4-(3-Chloro-2-(4-cyanobutyl)-4-(2-((2R)-2-hydroxy-7-azabicyclo[2.2.1]heptan-7-yl)acetyl)-5-methyl-1H-pyrrol-1-yl)-2-fluorobenzonitrile]", "IC50": "< 50"}
    ]}
  ]
}
